Experimental data as given in PubChem BioAssay AID2060607 (Molecular Pharmacology Branch, DTP, NCI, 2025).

System: 876862-298-R-J1-PDC complex spheroids, viability % test/control
Assay: Anticancer human tumor 876862-298-R-J1-PDC patient-derived endometrial carcinoma cell line growth inhibition [CLK]
Settings: for IC50: curve of first compound; for viability, T/C: stronger effect = lower value
Text: A high-throughput screen of multi-cell type tumor spheroids was designed to identify active combinations of […] and targeted small molecules. Complex spheroids include a stromal component modeled by human endothelial cells (HUVEC) and fibroblasts modeled by human mesenchymal stem cells (MSCs). The concentration ranges selected for each drug and investigational agent were based upon clinically achievable concentrations if the clinical Cmax of the agent was known.
Compounds. The drugs and investigational agents: cirtuvivint (SM08502; NSC835563), CC-671 (NSC850746), vemurafenib (NSC761431), tapotoclax (NSC804041), sotorasib (NSC818433), adagrasib (NSC831453), MRTX-1133 (NSC836407), BAY2416964 (NSC825713), copanlisib (NSC816437), inavolisib (NSC800729), abemaciclib (NSC768073), osimertinib (NSC779217), entinostat (NSC756642), eltanexor (KPT-8602, NSC794443), venetoclax (NSC766270), ceralasertib (NSC777638), bortezomib (NSC756655), olaparib (NSC753686), talazoparib (NSC767125), alisertib (NSC759677), peposertib (NSC802822), gemcitabine (NSC613327), 5-fluorouracil (NSC19893), SN-38 (NSC673596), oxaliplatin (NSC266046), paclitaxel (NSC125973), and doxorubicin (NSC123127), were obtained from the National Cancer Institute (NCI) Developmental Therapeutics Program Chemical Repository. The FDA-approved anticancer drug set is available from the Developmental Therapeutics Program at https://dtp.cancer.gov/organization/dscb/obtaining/available plates.htm. […] The stock solutions were prepared in dimethyl sulfoxide (DMSO, Sigma-Aldrich, St. Louis, MO, cat. D2650), except for the platinum complexes which were prepared in saline (Quality Biological, Gaithersburg, MD, cat. 114-055-101), at 800-fold the tested concentration and stored at -70 degrees C prior to their use. All drugs and investigational agents were tested over a range starting from a high concentration at or near the clinical Cmax and decreasing in half-log increments. If the clinical Cmax for an agent had not been determined, the highest concentration tested was 10 microM.
Cell Culture. All cells were maintained in an incubator at 37 degrees C and 5% CO2 with 95% humidity. The PDC lines were cultured according to standard operating procedures established by the NCI PDMR. Briefly, all PDCs were thawed and cultured in Matrigel-coated flasks prepared with a working solution of 1X Ham's F-12 nutrient mix, without supplementation (Invitrogen, Waltham, MA, cat. 11765054), 100 U/mL penicillin-streptomycin (Invitrogen, cat. 15140122), and 2.5% Matrigel (Corning Inc., Corning, NY, cat. 354248) for the first three passages. The 947758-054-R-J2-PDC line was cultured in 6B/Colon 1A media, which includes advanced DMEM/F-12 (Thermo Fisher Scientific, cat. 12634028), 10 mM HEPES (Thermo Fisher Scientific, cat. 15630080), 1X GlutaMAX supplement (Thermo Fisher Scientific, cat. 35050061), 0.1 mg/mL primocin (InvivoGen, cat. ant-pm-2), 10% defined fetal bovine serum, heat inactivated (HyClone Laboratories Inc., cat. SH30070.03HI), 1.25 mM N-Acetyl-L-cysteine (Sigma-Aldrich, cat. A9165), 10 mM nicotinamide (Sigma-Aldrich, cat. N0636), 1X B-27 supplement (Thermo Fisher Scientific, cat. 17504044), 1X N-2 supplement (Thermo Fisher Scientific, cat. 17502048), and 10 microM Y-27632 dihydrochloride (Tocris Bioscience, cat. 1254). The 876862-298-R-J1-PDC was cultured in 6E media, which includes all 6B/Colon 1A media components plus 50% L-WRN conditioned media (ATCC, cat. CRL-3276), 50 ng/mL recombinant human EGF recombinant protein (hEGF; Thermo Fisher Scientific, cat. PHG0311), 10 ng/mL recombinant human fibroblast growth factor 10 (hGFG-10; PeproTech, cat. 100-26), 1 ng/mL recombinant human fibroblast growth factor 2 (hFGF-2; PeproTech, cat. 100-18B), and 1 µM prostaglandin E2 (PGE2; Tocris, cat. 2296). The 227483-062-R1-J1-PDC line was cultured in Panc media, containing all 6E components except hFGF-2, with the addition of 500 nM SB-431542 (Selleckchem, cat. S1067) and 10 nM gastrin (Tocris, cat. 3006). […]

[1] = second compound 0.0316 µM, first compound 0.0316 µM
[2] = second compound 0.0316 µM, first compound 0.1 µM
[3] = second compound 0.0316 µM, first compound 0.316 µM
[4] = second compound 0.0316 µM, first compound 1 µM
[5] = second compound 0.0316 µM, first compound 3.16 µM
[6] = second compound 0.0316 µM, first compound 10 µM
[7] = second compound 0.1 µM, first compound 0.0316 µM
[8] = second compound 0.1 µM, first compound 0.1 µM
[9] = second compound 0.1 µM, first compound 0.316 µM
[10] = second compound 0.1 µM, first compound 1 µM
[11] = second compound 0.1 µM, first compound 3.16 µM
[12] = second compound 0.1 µM, first compound 10 µM
[13] = second compound 0.316 µM, first compound 0.0316 µM
[14] = second compound 0.316 µM, first compound 0.1 µM
[15] = second compound 0.316 µM, first compound 0.316 µM
[16] = second compound 0.316 µM, first compound 1 µM
[17] = second compound 0.316 µM, first compound 3.16 µM
[18] = second compound 0.316 µM, first compound 10 µM
[19] = second compound 1 µM, first compound 0.0316 µM
[20] = second compound 1 µM, first compound 0.1 µM
[21] = second compound 1 µM, first compound 0.316 µM
[22] = second compound 1 µM, first compound 1 µM
[23] = second compound 1 µM, first compound 3.16 µM
[24] = second compound 1 µM, first compound 10 µM
[25] = second compound 3.16 µM, first compound 0.0316 µM
[26] = second compound 3.16 µM, first compound 0.1 µM
[27] = second compound 3.16 µM, first compound 0.316 µM
[28] = second compound 3.16 µM, first compound 1 µM
[29] = second compound 3.16 µM, first compound 3.16 µM
[30] = second compound 3.16 µM, first compound 10 µM
[31] = second compound 10 µM, first compound 0.0316 µM
[32] = second compound 10 µM, first compound 0.1 µM
[33] = second compound 10 µM, first compound 0.316 µM
[34] = second compound 10 µM, first compound 1 µM
[35] = second compound 10 µM, first compound 3.16 µM
[36] = second compound 10 µM, first compound 10 µM
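Also: spheroids exposed to drugs for 7 days before readout.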
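For viability, T/C in this document: 100% = DMSO vehicle control wells.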

Question: Which IC50 (second compound 0.0316 µM) does the source give for `C=C(F)C(=O)N1CCN(c2nc(OCC3CCCN3C)nc3c2CCN(c2cccc4cccc(Cl)c24)C3)CC1CC#N` (centres undefined) + CN1CCN(c2cc(C(=O)Nc3cc4cc(-c5cnn(C)c5)ccc4cn3)ccn2)CC1 here?
Answer: 4840 nM

Question: And the IC50 (second compound 0.1 µM)?
Answer: 3190 nM

Question: And the IC50 (second compound 0.316 µM)?
Answer: < 31.6 nM

Question: What about the IC50 (second compound 1 µM) of the same compound?
Answer: < 31.6 nM

Question: And the IC50 (second compound 3.16 µM)?
Answer: < 31.6 nM

Question: And the IC50 (second compound 10 µM)?
Answer: < 31.6 nM

Question: What about the viability, T/C [1] of the same compound?
Answer: 82.8%

Question: And the viability, T/C [2]?
Answer: 93.9%

Question: What about the viability, T/C [3] of the same compound?
Answer: 82.3%

Question: And the viability, T/C [4]?
Answer: 95.2%

Question: And the viability, T/C [5]?
Answer: 73.6%

Question: What about the viability, T/C [6] of the same compound?
Answer: 9.9%

Question: What about the viability, T/C [7] of the same compound?
Answer: 47.9%

Question: And the viability, T/C [8]?
Answer: 51.7%

Question: And the viability, T/C [9]?
Answer: 50.4%

Question: What about the viability, T/C [10] of the same compound?
Answer: 51.6%

Question: What about the viability, T/C [11] of the same compound?
Answer: 50.4%

Question: What about the viability, T/C [12] of the same compound?
Answer: 4.78%

Question: What about the viability, T/C [13] of the same compound?
Answer: 4.71%

Question: And the viability, T/C [14]?
Answer: 4.05%

Question: What about the viability, T/C [15] of the same compound?
Answer: 6.86%

Question: What about the viability, T/C [16] of the same compound?
Answer: 5.08%

Question: What about the viability, T/C [17] of the same compound?
Answer: 3.01%

Question: What about the viability, T/C [18] of the same compound?
Answer: 0.46%

Question: And the viability, T/C [19]?
Answer: 1.31%

Question: And the viability, T/C [20]?
Answer: 1.26%

Question: What about the viability, T/C [21] of the same compound?
Answer: 0.91%

Question: And the viability, T/C [22]?
Answer: 1.47%

Question: What about the viability, T/C [23] of the same compound?
Answer: 1.43%

Question: What about the viability, T/C [24] of the same compound?
Answer: 0.85%

Question: What about the viability, T/C [25] of the same compound?
Answer: 1.01%

Question: What about the viability, T/C [26] of the same compound?
Answer: 1.11%

Question: What about the viability, T/C [27] of the same compound?
Answer: 2.16%

Question: What about the viability, T/C [28] of the same compound?
Answer: 1.83%

Question: What about the viability, T/C [29] of the same compound?
Answer: 1.72%

Question: What about the viability, T/C [30] of the same compound?
Answer: 0.4%

Question: And the viability, T/C [31]?
Answer: 0.93%

Question: And the viability, T/C [32]?
Answer: 1.28%

Question: And the viability, T/C [33]?
Answer: 2.22%

Question: What about the viability, T/C [34] of the same compound?
Answer: 1.62%

Question: What about the viability, T/C [35] of the same compound?
Answer: 1.63%

Question: What about the viability, T/C [36] of the same compound?
Answer: 1.23%

Question: What does the source list for `C=CC(=O)N1CCN(c2nc(=O)n(-c3c(C)ccnc3C(C)C)c3nc(-c4c(O)cccc4F)c(F)cc23)C(C)C1` (centres undefined) + CN1CCN(c2cc(C(=O)Nc3cc4cc(-c5cnn(C)c5)ccc4cn3)ccn2)CC1?
Answer: IC50 (second compound 0.0316 µM): > 10000 nM; IC50 (second compound 0.1 µM): 1720 nM; IC50 (second compound 0.316 µM): < 31.6 nM; IC50 (second compound 1 µM): < 31.6 nM; IC50 (second compound 3.16 µM): < 31.6 nM; IC50 (second compound 10 µM): < 31.6 nM; viability, T/C [1]: 80.7%; viability, T/C [2]: 90.6%; viability, T/C [3]: 91%; viability, T/C [4]: 96.3%; viability, T/C [5]: 99%; viability, T/C [6]: 58.4%; viability, T/C [7]: 57.9%; viability, T/C [8]: 47.9%; viability, T/C [9]: 49.9%; viability, T/C [10]: 57.7%; viability, T/C [11]: 45.7%; viability, T/C [12]: 30.3%; viability, T/C [13]: 5.51%; viability, T/C [14]: 4.35%; viability, T/C [15]: 4.39%; viability, T/C [16]: 4.13%; viability, T/C [17]: 4.65%; viability, T/C [18]: 2.26%; viability, T/C [19]: 0.86%; viability, T/C [20]: 1.32%; viability, T/C [21]: 1.28%; viability, T/C [22]: 2.28%; viability, T/C [23]: 4.17%; viability, T/C [24]: 2.16%; viability, T/C [25]: 1.53%; viability, T/C [26]: 2.07%; viability, T/C [27]: 2.2%; viability, T/C [28]: 2.58%; viability, T/C [29]: 3.3%; viability, T/C [30]: 2.74%; viability, T/C [31]: 0.76%; viability, T/C [32]: 1.59%; viability, T/C [33]: 1.62%; viability, T/C [34]: 2.38%; viability, T/C [35]: 2.32%; viability, T/C [36]: 2.42%
